Reference: patent US20070244179A1, “Dihydro[1,4]dioxino[2,3-e]indazole derivatives as 5-hydroxytryptamine-6 ligands” (Wyeth, priority 2006, published 2007)
Counter-ions that a name gives are not always drawn.

Target: human cloned 5-HT6 receptors (Homo sapiens, UniProt P50406)
Assay: Evaluation of 5-HT6 binding affinity ([3H]-LSD displacement, membranes of Hela cells)
Conditions: not given

Chain of human cloned 5-HT6 receptors (P50406 whole entry): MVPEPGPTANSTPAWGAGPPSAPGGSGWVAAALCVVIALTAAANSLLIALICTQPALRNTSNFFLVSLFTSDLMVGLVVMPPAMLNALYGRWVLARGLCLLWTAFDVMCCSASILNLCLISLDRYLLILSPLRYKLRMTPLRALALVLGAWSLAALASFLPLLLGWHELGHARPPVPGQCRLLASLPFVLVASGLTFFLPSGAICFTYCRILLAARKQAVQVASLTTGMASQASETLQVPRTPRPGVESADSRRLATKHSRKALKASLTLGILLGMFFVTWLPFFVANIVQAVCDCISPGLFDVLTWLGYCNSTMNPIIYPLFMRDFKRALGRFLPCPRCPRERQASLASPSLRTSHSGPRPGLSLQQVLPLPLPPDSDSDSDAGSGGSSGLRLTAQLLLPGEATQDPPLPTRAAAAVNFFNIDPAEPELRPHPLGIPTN

| Compound | Ki |
| --- | --- |
| CCNC[C@@H]1COc2ccc3[nH]nc(S(=O)(=O)c4cccc5ccccc45)c3c2O1 [Example 15, N-{[(2R)-9-(1-naphthylsulfonyl)-2,3-dihydro-7H-[1,4]dioxino[2,3-e]indazol-2yl]methyl}-ethanamine] | 32.5 nM |
| CCN(CC)C[C@@H]1COc2ccc3[nH]nc(S(=O)(=O)c4cccc5ccccc45)c3c2O1 [Example 14, N-ethyl-N-{[(2R)-9-(1-naphthylsulfonyl)-2,3-dihydro-7H-[1,4]dioxino[2,3-e]indazol-2yl]-methyl}ethanamine] | 42 nM |
| CNC[C@@H]1COc2ccc3[nH]nc(S(=O)(=O)c4cccc5ccccc45)c3c2O1 [Example 12, N-methyl-1-[(2R)-9-(1-naphthylsulfonyl)-2,3-dihydro-7H-[1,4]dioxino[2,3-e]indazol-2-yl]methanamine] | 54.5 nM |
| O=S(=O)(c1cccc2ccccc12)c1n[nH]c2ccc3c(c12)O[C@H](CN1CCCC1)CO3 [Example 16, (2R)-9-(1-naphthylsulfonyl)-2-(pyrrolidin-1-ylmeyhyl)-2,3-dihydro-7H-[1,4]dioxino-[2,3-e]indazole] | 39.5 nM |
| O=S(=O)(c1cccc2ccccc12)c1n[nH]c2ccc3c(c12)O[C@@H](CN1CCCC1)CO3 [Example 10, (2S)-9-(1-naphthylsulfonyl)-2-(pyrrolidin-1-ylmethyl)-2,3-dihydro-7H-[1,4]dioxino-[2,3-e]indazole] | 31 nM |
| CNC[C@H]1COc2ccc3[nH]nc(S(=O)(=O)c4cccc5ccccc45)c3c2O1 [Example 6, N-Methyl-1-[(2S)-9-(1-naphthylsulfonyl)-2,3-dihydro-7H-[1,4]dioxino [2,3-e]indazol-2-yl]methanamine Hydrochloride] | 44.5 nM |
| O=S(=O)(c1cccc2ccccc12)c1n[nH]c2ccc3c(c12)O[C@H](CN1CCCCC1)CO3 [Example 17, (2R)-9-(1-naphthylsulfonyl)-2-(piperidin-1-ylmeyhyl)-2,3-dihydro-7H [1,4]dioxino-[2,3-e]indazole] | 36.5 nM |
| O=S(=O)(c1cccc2ccccc12)c1n[nH]c2ccc3c(c12)O[C@@H](CN1CCCCC1)CO3 [Example 11, (2S)-9-(1-naphthylsulfonyl)-2-(piperidin-1-ylmethyl)-2,3-dihydro-7H-[1,4]dioxino-[2,3-e]indazole] | 79 nM |
| CCNC[C@H]1COc2ccc3[nH]nc(S(=O)(=O)c4cccc5ccccc45)c3c2O1 [Example 7, N-{[(2S)-9-(1-naphthylsulfonyl)-2,3-dihydro-7H-[1,4]dioxino[2,3-e]indazol-2-yl]-methyl}ethanamine] | 84 nM |
| CN(C)C[C@@H]1COc2ccc3[nH]nc(S(=O)(=O)c4cccc5ccccc45)c3c2O1 [Example 13, N,N-dimethyl-1-[(2R)-9-(1-naphthylsulfonyl)-2,3-dihydro-7H-[1,4]dioxino[2,3-e]-indazol-2-yl]methanamine] | 31 nM |
| CCN(CC)C[C@H]1COc2ccc3[nH]nc(S(=O)(=O)c4cccc5ccccc45)c3c2O1 [Example 9, N-ethyl-N-{[(2S)-9-(1-naphthylsulfonyl)-2,3-dihydro-7H-[1,4]dioxino[2,3-e]indazol-2-yl]methyl}ethanamine] | 13.5 nM |
| CN(C)C[C@H]1COc2ccc3[nH]nc(S(=O)(=O)c4cccc5ccccc45)c3c2O1 [Example 8, N,N-dimethyl-1-[(2S)-9-(1-naphthylsulfonyl)-2,3-dihydro-7H-[1,4]dioxino[2,3-e]-indazol-2-yl]methanamine] | 61.5 nM |

Same assay, conditions: read-out: 5-HT6 Binding Ki; [3H]-LSD 3.0 nM, Hela cell membranes expressing human cloned 5-HT6 receptors, 120 minutes at room temperature

| Compound | Ki |
| --- | --- |
| CCCCNC[C@@H]1COc2ccc3[nH]nc(S(=O)(=O)c4cccc5ccccc45)c3c2O1 [Example 18] | 30 nM |

Test system: not given
Assay: not given
Conditions: not given

| Compound | melting point |
| --- | --- |
| CCN(CC)C[C@@H]1COc2ccc3[nH]nc(S(=O)(=O)c4cccc5ccccc45)c3c2O1 (as salt: hydrochloride) [Example 14, N-ethyl-N-{[(2R)-9-(1-naphthylsulfonyl)-2,3-dihydro-7H-[1,4]dioxino[2,3-e]indazol-2yl]-methyl}ethanamine] | > 200 °C |
| CCNC[C@H]1COc2ccc3[nH]nc(S(=O)(=O)c4cccc5ccccc45)c3c2O1 (as salt: hydrochloride) [Example 7, N-{[(2S)-9-(1-naphthylsulfonyl)-2,3-dihydro-7H-[1,4]dioxino[2,3-e]indazol-2-yl]-methyl}ethanamine] | 178.9 to 180.1 °C |
| O=S(=O)(c1cccc2ccccc12)c1n[nH]c2ccc3c(c12)O[C@H](CN1CCCC1)CO3 (as salt: hydrochloride) [Example 16, (2R)-9-(1-naphthylsulfonyl)-2-(pyrrolidin-1-ylmeyhyl)-2,3-dihydro-7H-[1,4]dioxino-[2,3-e]indazole] | 184 to 186 °C |
| O=S(=O)(c1cccc2ccccc12)c1n[nH]c2ccc3c(c12)O[C@H](CN1CCCCC1)CO3 (as salt: hydrochloride) [Example 17, (2R)-9-(1-naphthylsulfonyl)-2-(piperidin-1-ylmeyhyl)-2,3-dihydro-7H [1,4]dioxino-[2,3-e]indazole] | 187 to 189 °C |
| CCN(CC)C[C@H]1COc2ccc3[nH]nc(S(=O)(=O)c4cccc5ccccc45)c3c2O1 (as salt: hydrochloride) [Example 9, N-ethyl-N-{[(2S)-9-(1-naphthylsulfonyl)-2,3-dihydro-7H-[1,4]dioxino[2,3-e]indazol-2-yl]methyl}ethanamine] | 175.6 to 177.2 °C |
| CNC[C@@H]1COc2ccc3[nH]nc(S(=O)(=O)c4cccc5ccccc45)c3c2O1 (as salt: hydrochloride) [Example 12, N-methyl-1-[(2R)-9-(1-naphthylsulfonyl)-2,3-dihydro-7H-[1,4]dioxino[2,3-e]indazol-2-yl]methanamine] | > 200 °C |
| CNC[C@H]1COc2ccc3[nH]nc(S(=O)(=O)c4cccc5ccccc45)c3c2O1 (as salt: hydrochloride) [Example 6, N-Methyl-1-[(2S)-9-(1-naphthylsulfonyl)-2,3-dihydro-7H-[1,4]dioxino [2,3-e]indazol-2-yl]methanamine Hydrochloride] | 181.3 to 183.3 °C |
| O=S(=O)(c1cccc2ccccc12)c1n[nH]c2ccc3c(c12)O[C@@H](CN1CCCCC1)CO3 (as salt: hydrochloride) [Example 11, (2S)-9-(1-naphthylsulfonyl)-2-(piperidin-1-ylmethyl)-2,3-dihydro-7H-[1,4]dioxino-[2,3-e]indazole] | 163.9 to 165.2 °C |
| O=S(=O)(c1cccc2ccccc12)c1n[nH]c2ccc3c(c12)O[C@@H](CN1CCCC1)CO3 (as salt: hydrochloride) [Example 10, (2S)-9-(1-naphthylsulfonyl)-2-(pyrrolidin-1-ylmethyl)-2,3-dihydro-7H-[1,4]dioxino-[2,3-e]indazole] | 182.6 to 184.3 °C |
| CCNC[C@@H]1COc2ccc3[nH]nc(S(=O)(=O)c4cccc5ccccc45)c3c2O1 (as salt: hydrochloride) [Example 15, N-{[(2R)-9-(1-naphthylsulfonyl)-2,3-dihydro-7H-[1,4]dioxino[2,3-e]indazol-2yl]methyl}-ethanamine] | 182 to 184 °C |
| CN(C)C[C@@H]1COc2ccc3[nH]nc(S(=O)(=O)c4cccc5ccccc45)c3c2O1 (as salt: hydrochloride) [Example 13, N,N-dimethyl-1-[(2R)-9-(1-naphthylsulfonyl)-2,3-dihydro-7H-[1,4]dioxino[2,3-e]-indazol-2-yl]methanamine] | > 200 °C |
| CN(C)C[C@H]1COc2ccc3[nH]nc(S(=O)(=O)c4cccc5ccccc45)c3c2O1 (as salt: hydrochloride) [Example 8, N,N-dimethyl-1-[(2S)-9-(1-naphthylsulfonyl)-2,3-dihydro-7H-[1,4]dioxino[2,3-e]-indazol-2-yl]methanamine] | 178.1 to 181.3 °C |
